# Test results published in patent US20250197351A1, “C4-CARBOXYLIC ACID-S[…] DERIVATIVES AND METHODS OF USING” (priority 2022, published 2025).
# Where “and” joins values, the source holds several entries; their conditions need not be identical. Equal entries are not always repeated.
# Tests used:
# 5-HT1A receptor = target: T1, 5-HT1A receptor (Homo sapiens, UniProt P08908); assay: cAMP-Glo assay of 5-HT1A receptor modulation, CHO-K1/5-HT1A/Ga15 (+5-HT1A) vs CHO-K1/Ga15 (−5-HT1A) cells; format: cell-based; conditions: +5-HT1A vs −5-HT1A CHO-K1 cells; 4 μM forskolin; increasing ligand concentration
# T1 construct: host or cells: CHO-K1 (co-expressing Ga15)
# T1 sequence (P08908 1-422): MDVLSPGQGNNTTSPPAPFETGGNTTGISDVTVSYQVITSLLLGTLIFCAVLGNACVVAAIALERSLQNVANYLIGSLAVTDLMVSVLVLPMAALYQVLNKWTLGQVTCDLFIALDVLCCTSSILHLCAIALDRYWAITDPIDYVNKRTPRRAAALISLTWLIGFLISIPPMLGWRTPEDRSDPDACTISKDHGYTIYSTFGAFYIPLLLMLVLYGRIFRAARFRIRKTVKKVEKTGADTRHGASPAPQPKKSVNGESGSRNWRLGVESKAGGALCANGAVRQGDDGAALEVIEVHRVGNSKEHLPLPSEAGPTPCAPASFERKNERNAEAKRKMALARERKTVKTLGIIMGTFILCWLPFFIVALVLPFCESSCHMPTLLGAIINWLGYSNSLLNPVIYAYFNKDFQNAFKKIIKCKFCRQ
# [1] = target: T2, 5-HT2A receptor (5-HT2AR) (Mus musculus, UniProt P35363); assay: Drug-induced Head Twitch Response (HTR); format: in vivo; conditions: 1 mg/kg i.p., 15-to-30-minute window post-drug, relative to vehicle
# T2 construct: host or cells: C57BL/6 mice, in vivo (neuronal receptor)
# T2 sequence (P35363 whole entry): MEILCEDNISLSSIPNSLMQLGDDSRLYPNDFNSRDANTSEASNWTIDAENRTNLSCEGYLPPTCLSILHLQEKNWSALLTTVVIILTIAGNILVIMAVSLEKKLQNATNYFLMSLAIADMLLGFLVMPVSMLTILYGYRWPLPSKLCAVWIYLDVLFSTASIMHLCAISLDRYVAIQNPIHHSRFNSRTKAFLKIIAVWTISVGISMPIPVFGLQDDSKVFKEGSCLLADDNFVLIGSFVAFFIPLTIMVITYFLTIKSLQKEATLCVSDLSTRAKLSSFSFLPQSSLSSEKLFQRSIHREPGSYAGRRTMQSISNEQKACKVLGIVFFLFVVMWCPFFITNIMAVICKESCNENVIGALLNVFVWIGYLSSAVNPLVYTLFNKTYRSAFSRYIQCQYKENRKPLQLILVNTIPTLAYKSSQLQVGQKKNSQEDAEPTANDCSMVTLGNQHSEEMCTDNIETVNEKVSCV
# [2] = Mouse pharmacokinetic (PK) study, parent compound and psilocin metabolite in plasma; format: in vivo; conditions: for bioavailability: male, C57Bl/6, mouse, plasma, po; for bioavailability / F(%): parent compound, AUC0-tlast used; for AUC0-inf/Dose / AUC0-tlast/Dose / Cmax/Dose: parent compound in plasma; for Plasma concentration of parent compound / Plasma concentration of psilocin: individual animals
# From the text: Briefly, the procedure was as follows. […] 19, 2022.
# [3] = 1 mg/kg i.v., each animal, 1 mg/kg
# [4] = 1 mg/kg p.o., each animal, 1 mg/kg
# [5] = 3 mg/kg p.o., each animal, 3 mg/kg
# [6] = 10 mg/kg p.o., each animal, 10 mg/kg
# [7] = mouse, prodrug 1 mg/kg i.v., 8 h, BLQ = below 0.2 ng/mL
# [8] = mouse, prodrug 1 mg/kg p.o. (psilocybin: 1.56 mg/kg), 8 h, BLQ = below 0.2 ng/mL
# [9] = mouse, prodrug 1 mg/kg p.o. (psilocybin: 1.56 mg/kg), 24 h, BLQ = below 0.2 ng/mL
# [10] = mouse, prodrug 3 mg/kg p.o., 24 h, BLQ = below 0.2 ng/mL
# [11] = mouse, prodrug 10 mg/kg p.o., 24 h, BLQ = below 0.2 ng/mL
smiles,measurement,setting,value
CN(C)CCc1c[nH]c2cccc(OC(=O)c3ccc(Br)cc3)c12 [C(I)],5-HT1A receptor modulation (reduction of forskolin-induced cAMP),5-HT1A receptor,mild receptor modulation at higher ligand concentrations
same,Head Twitch Response (HTR) incidence,[1],Elevated incidences of HTR
same,bioavailability,"[2]; 1 mg/kg, 1 mg/kg p.o., M37 (i.v. group) considered as an outlier, mean ± SD",2.3 ± 1.76%
same,bioavailability,"[2]; 3 mg/kg, 3 mg/kg p.o., M37 (i.v. group) considered as an outlier, mean ± SD",3.18 ± 0.189%
same,bioavailability,"[2]; 3 mg/kg, 3 mg/kg p.o., if M37 (i.v. group) is considered as an outlier, each animal",3.02%
same,bioavailability,"[2]; 10 mg/kg, 10 mg/kg p.o., M37 (i.v. group) considered as an outlier, mean ± SD",3.22 ± 0.731%
same,bioavailability,"[2]; 10 mg/kg, 10 mg/kg p.o., if M37 (i.v. group) is considered as an outlier, each animal",2.71%
same,Plasma concentration,"[2]; parent C(I), 1 mg/kg i.v., 8 h, each animal, BLQ = below 0.5 ng/mL, 1 mg/kg",BLQ (2×) and No Peak
same,Plasma concentration,"[2]; parent C(I), 1 mg/kg p.o., 1 h, each animal, BLQ = below 0.5 ng/mL, 1 mg/kg",BLQ
same,Plasma concentration,"[2]; parent C(I), 1 mg/kg p.o., 2 h, each animal, BLQ = below 0.5 ng/mL, 1 mg/kg",BLQ
same,Plasma concentration,"[2]; parent C(I), 1 mg/kg p.o., 4 h, each animal, BLQ = below 0.5 ng/mL, 1 mg/kg",BLQ
same,Plasma concentration,"[2]; parent C(I), 1 mg/kg p.o., 6 h, each animal, BLQ = below 0.5 ng/mL",BLQ
same,Plasma concentration,"[2]; parent C(I), 1 mg/kg p.o., 8 h, each animal, BLQ = below 0.5 ng/mL",BLQ
same,Plasma concentration,"[2]; parent C(I), 1 mg/kg p.o., 24 h, each animal, BLQ = below 0.5 ng/mL, 1 mg/kg",No Peak and No (2×)
same,Plasma concentration,"[2]; parent C(I), 3 mg/kg p.o., 1 h, each animal, BLQ = below 0.5 ng/mL, 3 mg/kg",1.33 ng/mL
same,Plasma concentration,"[2]; parent C(I), 3 mg/kg p.o., 6 h, each animal, BLQ = below 0.5 ng/mL, 3 mg/kg",0.250 ng/mL
same,Plasma concentration,"[2]; parent C(I), 3 mg/kg p.o., 8 h, each animal, BLQ = below 0.5 ng/mL",BLQ
same,Plasma concentration,"[2]; parent C(I), 3 mg/kg p.o., 24 h, each animal, BLQ = below 0.5 ng/mL",No Peak
same,Plasma concentration,"[2]; parent C(I), 10 mg/kg p.o., 4 h, each animal, BLQ = below 0.5 ng/mL, 10 mg/kg",3.01 ng/mL
same,Plasma concentration,"[2]; parent C(I), 10 mg/kg p.o., 24 h, each animal, BLQ = below 0.5 ng/mL",No
same,AUC0-inf/Dose,[2]; [3],1014 kg·ng·h/mL/mg and 64.4 kg·ng·h/mL/mg and 51.9 kg·ng·h/mL/mg
same,AUC0-tlast/Dose,[2]; [3],1006 kg·ng·h/mL/mg and 63.7 kg·ng·h/mL/mg and 51.4 kg·ng·h/mL/mg
same,AUC0-tlast/Dose,"[2]; 1 mg/kg i.v., mean of n = 2 (without the possible outlier M37)",57.6 (n = 2) h*kg*ng/mL/mg
same,AUC0-inf/Dose,"[2]; 1 mg/kg i.v., mean ± SD",377 ± 552 kg·ng·h/mL/mg
same,AUC0-tlast/Dose,"[2]; 1 mg/kg i.v., mean ± SD",374 ± 548 kg·ng·h/mL/mg
same,AUC0-tlast/Dose,[2]; [4],2.09 kg·ng·h/mL/mg and 0.169 kg·ng·h/mL/mg and 1.75 kg·ng·h/mL/mg
same,Cmax/Dose,[2]; [4],0.816 kg·ng/mL/mg and 0.54 kg·ng/mL/mg and 1.28 kg·ng/mL/mg
same,AUC0-tlast/Dose,"[2]; 1 mg/kg p.o., mean ± SD",1.34 ± 1.02 kg·ng·h/mL/mg
same,Cmax/Dose,"[2]; 1 mg/kg p.o., mean ± SD",0.877 ± 0.376 kg·ng/mL/mg
same,AUC0-tlast/Dose,[2]; [5],1.75 kg·ng·h/mL/mg and 1.82 kg·ng·h/mL/mg and 1.97 kg·ng·h/mL/mg
same,Cmax/Dose,[2]; [5],0.650 kg·ng/mL/mg and 0.720 kg·ng/mL/mg and 0.780 kg·ng/mL/mg
same,AUC0-tlast/Dose,"[2]; 3 mg/kg p.o., mean ± SD",1.85 ± 0.110 kg·ng·h/mL/mg
same,Cmax/Dose,"[2]; 3 mg/kg p.o., mean ± SD",0.717 ± 0.0651 kg·ng/mL/mg
same,AUC0-tlast/Dose,[2]; [6],1.58 kg·ng·h/mL/mg and 1.68 kg·ng·h/mL/mg and 2.36 kg·ng·h/mL/mg
same,Cmax/Dose,[2]; [6],0.720 kg·ng/mL/mg and 0.710 kg·ng/mL/mg and 1.09 kg·ng/mL/mg
same,AUC0-tlast/Dose,"[2]; 10 mg/kg p.o., mean ± SD",1.87 ± 0.425 kg·ng·h/mL/mg
same,Cmax/Dose,"[2]; 10 mg/kg p.o., mean ± SD",0.840 ± 0.217 kg·ng/mL/mg
same,F(%),"[2]; 1 mg/kg p.o., if M37 (i.v. group) is considered as an outlier, each animal, 1 mg/kg",3.01%
same,F(%),"[2]; 10 mg/kg p.o., if M37 (i.v. group) is considered as an outlier, each animal, 10 mg/kg",2.90%
same,Plasma concentration,"[2]; psilocin, prodrug 1 mg/kg i.v., 6 h, each animal, BLQ = below 0.2 ng/mL",BLQ
same,Plasma concentration,"[2]; psilocin, prodrug 1 mg/kg i.v., 8 h, each animal, BLQ = below 0.2 ng/mL",BLQ
same,Plasma concentration,"[2]; psilocin, prodrug 1 mg/kg p.o., 8 h, each animal, BLQ = below 0.2 ng/mL",BLQ
same,Plasma concentration,"[2]; psilocin, prodrug 1 mg/kg p.o., 24 h, each animal, BLQ = below 0.2 ng/mL",No Peak (2×) and BLQ
same,Plasma concentration,"[2]; psilocin, prodrug 3 mg/kg p.o., 24 h, each animal, BLQ = below 0.2 ng/mL",No Peak
same,Plasma concentration,"[2]; psilocin, prodrug 10 mg/kg p.o., 24 h, each animal, BLQ = below 0.2 ng/mL",BLQ
COc1ccc(C(=O)Oc2cccc3[nH]cc(CCN(C)C)c23)cc1 [C(V)],5-HT1A receptor modulation (reduction of forskolin-induced cAMP),5-HT1A receptor,mild receptor modulation at higher ligand concentrations
same,Head Twitch Response (HTR) incidence,[1],Elevated incidences of HTR
same,Detection of parent compound in plasma after i.v. administration,"[2]; mouse, 1 mg/kg i.v.",only detectable in i.v. administered animals
same,Plasma concentration of parent compound,"[2]; mouse, 1 mg/kg i.v., 0.25 h, BLQ = below 0.5 ng/mL (C(V)), 1 mg/kg",BLQ
same,Plasma concentration of parent compound,"[2]; mouse, 1 mg/kg i.v., 0.5 h, BLQ = below 0.5 ng/mL (C(V)), 1 mg/kg",BLQ and No Peak (2×)
same,Plasma concentration of parent compound,"[2]; mouse, 1 mg/kg i.v., 1 h",No Peak
same,Plasma concentration of parent compound,"[2]; mouse, 1 mg/kg i.v., 2 h",No Peak
same,Plasma concentration of parent compound,"[2]; mouse, 1 mg/kg i.v., 4 h",No Peak
same,Plasma concentration of parent compound,"[2]; mouse, 1 mg/kg i.v., 6 h",No Peak
same,Plasma concentration of parent compound,"[2]; mouse, 1 mg/kg i.v., 8 h",No Peak
same,Detection of parent compound in plasma after oral administration,"[2]; mouse, orally administered, any dose (1, 3, 10 mg/kg)",not detectable
same,Plasma concentration of psilocin,[2]; [7],BLQ
same,Plasma concentration of psilocin,[2]; [8],BLQ
same,Plasma concentration of psilocin,[2]; [9],No Peak and BLQ (2×)
same,Plasma concentration of psilocin,[2]; [10],No Peak and BLQ (2×)
same,Plasma concentration of psilocin,[2]; [11],BLQ (2×) and No Peak
CN(C)CCc1c[nH]c2cccc(OC(=O)c3c(F)c(F)c(F)c(F)c3F)c12 [C(VI)],5-HT1A receptor modulation (reduction of forskolin-induced cAMP),5-HT1A receptor,no receptor modulation at higher ligand concentrations
same,Head Twitch Response (HTR) incidence,[1],Elevated incidences of HTR
same,Detection of parent compound in plasma,"[2]; mouse, any animals at any dose (i.v. and oral)",not detectable in any animals at any dose
same,Plasma concentration of psilocin,[2]; [7],BLQ
same,Plasma concentration of psilocin,[2]; [8],BLQ
same,Plasma concentration of psilocin,[2]; [9],BLQ and No Peak (2×)
same,Plasma concentration of psilocin,[2]; [10],BLQ (2×) and No Peak
same,Plasma concentration of psilocin,[2]; [11],BLQ
